The target of one test is human orexin-2 receptor (Homo sapiens (Human), UniProt O43614). The test can be described thus: Human orexin 2 receptor radioligand binding ([3H]-EMPA competition). Particulars: HEK293 cells stably expressing human orexin-2 receptor; [3H]-EMPA 5 nM final; read-out: OR-2 Ki. The procedure, abridged:
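Competition binding on HEK293 cells stably expressing human orexin-2 receptor, using 5 nM final [3H]-EMPA in PBS, compounds 0.1 nM to 10 μM (DMSO ≤0.1%). 60 min at room temperature, then filtration and scintillation counting; nonspecific binding defined with 10 μM of a reference antagonist.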

The next test concerns the target human orexin 1 receptor (Homo sapiens (Human), UniProt O43613). The test can be described thus: Human orexin 1 receptor radioligand binding ([3H]-SB674042 competition). Particulars: CHO cells stably expressing human orexin 1 receptor; [3H]-SB674042 4 nM final; read-out: OR-1 Ki. A digest of the protocol: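 CHO cells stably expressing human OX1R incubated 60 min at room temperature with [3H]-SB674042 and compounds (7 concentrations, 0.1 nM–10 μM; DMSO ≤0.1%) in PBS. Nonspecific binding defined with 10 μM of a reference urea antagonist; bound radioactivity measured by filtration and scintillation counting.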

Chain of human orexin 1 receptor (O43613 whole entry): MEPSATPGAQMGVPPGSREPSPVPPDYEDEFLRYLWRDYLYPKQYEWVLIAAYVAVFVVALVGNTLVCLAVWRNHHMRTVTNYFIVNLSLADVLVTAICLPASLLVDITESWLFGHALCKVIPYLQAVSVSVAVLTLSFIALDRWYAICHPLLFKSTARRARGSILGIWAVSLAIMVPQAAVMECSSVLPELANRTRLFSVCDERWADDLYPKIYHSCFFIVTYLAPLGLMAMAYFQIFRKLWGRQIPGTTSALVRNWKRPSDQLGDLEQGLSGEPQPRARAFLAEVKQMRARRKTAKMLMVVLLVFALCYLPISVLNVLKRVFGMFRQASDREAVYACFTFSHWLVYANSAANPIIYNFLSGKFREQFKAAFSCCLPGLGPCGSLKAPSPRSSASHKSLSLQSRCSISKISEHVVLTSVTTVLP
Chain of human orexin-2 receptor (O43614 whole entry): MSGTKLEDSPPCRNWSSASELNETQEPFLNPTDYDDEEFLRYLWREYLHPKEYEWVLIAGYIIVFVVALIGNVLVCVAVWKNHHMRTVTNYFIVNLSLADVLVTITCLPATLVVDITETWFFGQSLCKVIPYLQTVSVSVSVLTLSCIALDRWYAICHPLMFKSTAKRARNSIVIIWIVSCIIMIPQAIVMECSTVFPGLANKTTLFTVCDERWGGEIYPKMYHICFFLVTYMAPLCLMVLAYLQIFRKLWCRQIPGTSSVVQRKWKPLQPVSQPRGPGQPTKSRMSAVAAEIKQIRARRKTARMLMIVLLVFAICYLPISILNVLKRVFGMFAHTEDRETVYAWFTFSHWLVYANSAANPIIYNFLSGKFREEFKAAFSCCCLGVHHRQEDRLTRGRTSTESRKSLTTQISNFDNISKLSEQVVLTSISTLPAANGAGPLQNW

On to `Cc1cc(C)nc(N2C[C@@H]3CCN(C(=O)c4cccc(C)c4-n4ccnn4)C[C@@H]32)n1` [Example 138, (1R,6S)-8-(4,6-Dimethylpyrimidin-2-yl)-3-{[3-methyl-2-(1H-1,2,3-triazol-1-yl)phenyl]carbonyl}-3,8-diazabicyclo[4.2.0]octane], for which the Ki (as a rule, a dissociation constant, usually derived from enzyme kinetics or from competition with a known ligand) on human orexin-2 receptor was 70 nM; on human orexin 1 receptor, 1650 nM.

Turning to `COc1ccc(-n2nccn2)c(C(=O)N2CC[C@H]3CN(c4cc(C)ccn4)[C@H]3C2)c1` [Example 139, (1R,6S)-3-{[5-Methoxy-2-(2H-1,2,3-triazol-2-yl)phenyl]carbonyl}-8-(4-methylpyridin-2-yl)-3,8-diazabicyclo[4.2.0]octane], the Ki worked out at 208 nM on human orexin-2 receptor and 6500 nM at human orexin 1 receptor.

`COc1ccc(-n2nccn2)c(C(=O)N2CC[C@H]3CN(c4cc(C(F)(F)F)ccn4)[C@H]3C2)c1` [Example 140, (1R,6S)-3-{[5-Methoxy-2-(2H-1,2,3-triazol-2-yl)phenyl]carbonyl}-8-[4-(trifluoromethyl)pyridin-2-yl]-3,8-diazabicyclo[4.2.0]octane]: the Ki on human orexin-2 receptor was found to be 70 nM; at human orexin 1 receptor, 1070 nM.

Take `Cc1cccc(C(=O)N2CC[C@H]3CN(c4cc(N(C)C)ccn4)[C@H]3C2)c1-n1nccn1` [Example 141, N,N-Dimethyl-2-[(1R,6S)-3-{[3-methyl-2-(2H-1,2,3-triazol-2-yl)phenyl]carbonyl}-3,8-diazabicyclo[4.2.0]oct-8-yl]pyridin-4-amine]: the Ki was 734 nM on human orexin-2 receptor and 9000 nM on human orexin 1 receptor.

`COc1ccc(C(=O)N2CC[C@H]3CN(c4cc(N(C)C)ccn4)[C@H]3C2)c(-n2nccn2)c1` [Example 142, 2-[(1R,6S)-3-{[4-Methoxy-2-(2H-1,2,3-triazol-2-yl)phenyl]carbonyl}-3,8-diazabicyclo[4.2.0]oct-8-yl]-N,N-dimethylpyridin-4-amine]: the Ki on human orexin-2 receptor is 9000 nM; at human orexin 1 receptor, 10000 nM.

As for `CN(C)c1ccnc(N2C[C@@H]3CCN(C(=O)c4cccc(F)c4-c4ncccn4)C[C@@H]32)c1` [Example 143, 2-{(1R,6S)-3-[(3-Fluoro-2-pyrimidin-2-ylphenyl)carbonyl]-3,8-diazabicyclo[4.2.0]oct-8-yl}-N,N-dimethylpyridin-4-amine], the inhibitory constant (Ki) on human orexin-2 receptor amounted to 9000 nM; on human orexin 1 receptor it was 10000 nM.

Turning to `CN(C)c1ccnc(N2C[C@@H]3CCN(C(=O)c4cccc(F)c4-n4nccn4)C[C@@H]32)c1` [Example 144, 2-[(1R,6S)-3-{[3-Fluoro-2-(2H-1,2,3-triazol-2-yl)phenyl]carbonyl}-3,8-diazabicyclo[4.2.0]oct-8-yl]-N,N-dimethylpyridin-4-amine], the Ki on human orexin-2 receptor was 2810 nM; at human orexin 1 receptor it was 10000 nM.

Turning to `O=C(c1cccc(F)c1-n1nccn1)N1CC[C@H]2CN(c3cc(C(F)(F)F)ccn3)[C@H]2C1` [Example 145, (1R,6S)-3-{[3-Fluoro-2-(2H-1,2,3-triazol-2-yl)phenyl]carbonyl}-8-[4-(trifluoromethyl)pyridin-2-yl]-3,8-diazabicyclo[4.2.0]octane], the results for the Ki at human orexin-2 receptor and at human orexin 1 receptor were 110 nM and 3300 nM, respectively.

Turning to `COc1ccc(C(=O)N2CC[C@H]3CN(c4cc(C(F)(F)F)ccn4)[C@H]3C2)c(-n2nccn2)c1` [Example 146, (1R,6S)-3-{[4-Methoxy-2-(2H-1,2,3-triazol-2-yl)phenyl]carbonyl}-8-[4-(trifluoromethyl)pyridin-2-yl]-3,8-diazabicyclo[4.2.0]octane], the Ki amounted to 299 nM on human orexin-2 receptor and 9000 nM at human orexin 1 receptor.

`Cc1cccc(C(=O)N2CC[C@H]3CN(c4cc(C(F)(F)F)ccn4)[C@H]3C2)c1-n1nccn1` [Example 147, (1R,6S)-3-{[3-Methyl-2-(2H-1,2,3-triazol-2-yl)phenyl]carbonyl}-8-[4-(trifluoromethyl)pyridin-2-yl]-3,8-diazabicyclo[4.2.0]octane]: the results for the Ki on human orexin-2 receptor and at human orexin 1 receptor were 91 nM and 793 nM, respectively.

Consider `Cc1cc(C)nc(N2C[C@@H]3CCN(C(=O)c4cccc(F)c4-n4nccn4)C[C@@H]32)c1` [Example 148, (1R,6S)-8-(4,6-Dimethylpyridin-2-yl)-3-{[3-fluoro-2-(2H-1,2,3-triazol-2-yl)phenyl]carbonyl}-3,8-diazabicyclo[4.2.0]octane], for which the Ki on human orexin-2 receptor is 36 nM; at human orexin 1 receptor, 845 nM.

Consider `COc1ccc(C(=O)N2CC[C@H]3CN(c4cc(C)cc(C)n4)[C@H]3C2)c(-n2nccn2)c1` [Example 149, (1R,6S)-8-(4,6-Dimethylpyridin-2-yl)-3-{[4-methoxy-2-(2H-1,2,3-triazol-2-yl)phenyl]carbonyl}-3,8-diazabicyclo[4.2.0]octane], for which the figures for the Ki at human orexin-2 receptor and at human orexin 1 receptor were 190 nM and 10000 nM, respectively.

Regarding `COc1ccc(-n2nccn2)c(C(=O)N2CC[C@H]3CN(c4cc(N(C)C)ccn4)[C@H]3C2)c1` [Example 150, 2-[(1R,6S)-3-{[5-Methoxy-2-(2H-1,2,3-triazol-2-yl)phenyl]carbonyl}-3,8-diazabicyclo[4.2.0]oct-8-yl]-N,N-dimethylpyridin-4-amine], the Ki was 532 nM on human orexin-2 receptor and 10000 nM at human orexin 1 receptor.

Turning to `COc1ccc(-n2nccn2)c(C(=O)N2CC[C@H]3CN(c4cc(C)cc(C)n4)[C@H]3C2)c1` [Example 151, (1R,6S)-8-(4,6-Dimethylpyridin-2-yl)-3-{[5-methoxy-2-(2H-1,2,3-triazol-2-yl)phenyl]carbonyl}-3,8-diazabicyclo[4.2.0]octane], the Ki at human orexin-2 receptor was determined as 17 nM; at human orexin 1 receptor, 341 nM.

`O=C(c1cccc(F)c1-c1ncccn1)N1CC[C@H]2CN(c3cc(C(F)(F)F)ccn3)[C@H]2C1` [Example 152, (1R,6S)-3-[(3-Fluoro-2-pyrimidin-2-ylphenyl)carbonyl]-8-[4-(trifluoromethyl)pyridin-2-yl]-3,8-diazabicyclo[4.2.0]octane]: the figures for the inhibitory constant (Ki) on human orexin-2 receptor and on human orexin 1 receptor were 223 nM and 1850 nM, respectively.

On to `Cc1cc(C)nc(N2C[C@@H]3CCN(C(=O)c4cccc(F)c4-c4ncccn4)C[C@@H]32)c1` [Example 153, (1R,6S)-8-(4,6-Dimethylpyridin-2-yl)-3-[(3-fluoro-2-pyrimidin-2-ylphenyl)carbonyl]-3,8-diazabicyclo[4.2.0]octane], for which the Ki on human orexin-2 receptor was 82 nM; on human orexin 1 receptor, 687 nM.

`COc1ccc(Br)c(C(=O)N2CC[C@H]3CN(c4nc(C)cc(C)n4)[C@H]3C2)c1F` [Example 154, (1R,6S)-3-[(6-Bromo-2-fluoro-3-methoxyphenyl)carbonyl]-8-(4,6-dimethylpyrimidin-2-yl)-3,8-diazabicyclo[4.2.0]octane]: the Ki at human orexin-2 receptor was determined as 140 nM; on human orexin 1 receptor it was 1200 nM.

Regarding `Cc1cc(C)nc(N2C[C@@H]3CCN(C(=O)c4cccc(F)c4-n4cccn4)C[C@@H]32)n1` [Example 155, (1R,6S)-8-(4,6-Dimethylpyrimidin-2-yl)-3-{[3-fluoro-2-(1H-pyrazol-1-yl)phenyl]carbonyl}-3,8-diazabicyclo[4.2.0]octane], the figures for the Ki on human orexin-2 receptor and on human orexin 1 receptor were 57 nM and 1530 nM, respectively.

As for `COc1ccc(-c2ncccn2)c(C(=O)N2CC[C@H]3CN(c4nc(C)cc(C)n4)[C@H]3C2)c1F` [Example 156, (1R,6S)-8-(4,6-Dimethylpyrimidin-2-yl)-3-[(2-fluoro-3-methoxy-6-pyrimidin-2-ylphenyl)carbonyl]-3,8-diazabicyclo[4.2.0]octane], the Ki on human orexin-2 receptor turned out to be 185 nM; at human orexin 1 receptor, 860 nM.

As to `Cc1cc(C)nc(N2C[C@@H]3CCN(C(=O)c4cc(C)c(C)nc4-n4nccn4)C[C@@H]32)n1` [Example 157, (1R,6S)-8-(4,6-Dimethylpyrimidin-2-yl)-3-{[5,6-dimethyl-2-(2H-1,2,3-triazol-2-yl)pyridin-3-yl]carbonyl}-3,8-diazabicyclo[4.2.0]octane], the Ki at human orexin-2 receptor worked out at 230 nM; at human orexin 1 receptor, 3900 nM.

Consider `Cc1cc(C)nc(N2C[C@@H]3CCN(C(=O)c4cc(C)c(C)nc4-n4ccnn4)C[C@@H]32)n1` [Example 158, (1R,6S)-8-(4,6-Dimethylpyrimidin-2-yl)-3-{[5,6-dimethyl-2-(1H-1,2,3-triazol-1-yl)pyridin-3-yl]carbonyl}-3,8-diazabicyclo[4.2.0]octane], for which the Ki at human orexin-2 receptor worked out at 170 nM; at human orexin 1 receptor, 3200 nM.

Take `Cc1cc(C)nc(N2C[C@@H]3CCN(C(=O)c4ccc(C(F)(F)F)nc4-n4ccnn4)C[C@@H]32)n1` [Example 159, (1R,6S)-8-(4,6-Dimethylpyrimidin-2-yl)-3-{[2-(1H-1,2,3-triazol-1-yl)-6-(trifluoromethyl)pyridin-3-yl]carbonyl}-3,8-diazabicyclo[4.2.0]octane]: the results for the Ki at human orexin-2 receptor and at human orexin 1 receptor were 540 nM and 10000 nM, respectively.

With `Cc1cnc(-n2nccn2)c(C(=O)N2CC[C@H]3CN(c4nc(C)cc(C)n4)[C@H]3C2)c1` [Example 160, (1R,6S)-8-(4,6-Dimethylpyrimidin-2-yl)-3-{[5-methyl-2-(2H-1,2,3-triazol-2-yl)pyridin-3-yl]carbonyl}-3,8-diazabicyclo[4.2.0]octane], the Ki at human orexin-2 receptor stood at 370 nM; on human orexin 1 receptor, 6000 nM.

With `Cc1cnc(-n2ccnn2)c(C(=O)N2CC[C@H]3CN(c4nc(C)cc(C)n4)[C@H]3C2)c1` [Example 161, (1R,6S)-8-(4,6-Dimethylpyrimidin-2-yl)-3-{[5-methyl-2-(1H-1,2,3-triazol-1-yl)pyridin-3-yl]carbonyl}-3,8-diazabicyclo[4.2.0]octane], the Ki on human orexin-2 receptor amounted to 280 nM; on human orexin 1 receptor, 4500 nM.

The values are drawn from patent publication US8680275B2, “Fused heterocyclic compounds as orexin receptor modulators” (Janssen Pharmaceutica NV, priority 2009, dated 2014).
